From patent US8420681B2, “Dioxo-imidazolidine derivatives, which inhibit the enzyme SOAT-1, and pharmaceutical and cosmetic compositions containing them” (Galderma Research & Development, priority 2009, dated 2013)

Molecular target: T1, enzyme ACAT-1 (Homo sapiens, UniProt P35610)
T1 construct: endogenous in cells; host or cells: HepG2
T1 sequence (P35610 1-550): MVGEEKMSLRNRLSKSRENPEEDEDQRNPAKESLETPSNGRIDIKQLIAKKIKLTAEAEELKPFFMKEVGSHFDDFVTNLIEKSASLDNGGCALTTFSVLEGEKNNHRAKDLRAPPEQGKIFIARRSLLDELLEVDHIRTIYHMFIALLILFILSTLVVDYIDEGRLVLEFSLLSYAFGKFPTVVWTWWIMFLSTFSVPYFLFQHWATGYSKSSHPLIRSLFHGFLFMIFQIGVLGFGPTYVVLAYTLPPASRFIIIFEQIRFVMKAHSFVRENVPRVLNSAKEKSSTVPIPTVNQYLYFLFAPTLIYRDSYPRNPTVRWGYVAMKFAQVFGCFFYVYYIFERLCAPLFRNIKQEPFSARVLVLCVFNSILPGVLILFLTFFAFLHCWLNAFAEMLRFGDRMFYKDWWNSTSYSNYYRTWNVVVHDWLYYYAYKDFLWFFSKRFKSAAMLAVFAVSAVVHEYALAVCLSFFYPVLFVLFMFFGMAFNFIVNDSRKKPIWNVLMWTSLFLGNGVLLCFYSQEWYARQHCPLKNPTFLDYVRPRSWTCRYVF
Test: HepG2 NBD-cholesterol fluorescence test of inhibitory activity towards ACAT-1 (SOAT-1)
Assay type: cell-based
Details: HepG2 cells, NBD-cholesterol 1 μg/ml, incubation 6 hours at 37° C., fluorescence read (490/540 nm)
Procedure: The compounds (I) according to the invention, and also the pharmaceutically acceptable salts, solvates and/or hydrates thereof, have inhibitory properties on the enzyme SOAT-1. This inhibitory activity on the enzyme SOAT-1 is measured according to a HepG2 primary enzymatic test, as described in Example 23.
The compounds of formula (I) according to the invention were subjected to a test for evaluating their inhibitory activity towards the enzyme ACAT-1, inspired by the following publication: “Identification of ACAT1- and ACAT2-specific inhibitors using a novel, cell based fluorescence assay: individual ACAT uniqueness”, J. Lipid. Res. (2004) vol. 45, pages 378-386.
The principle of this test is based on the use of NBD-cholesterol, a cholesterol analogue whose fluorescence depends on its environment. When this molecule is in a polar environment, it is weakly fluorescent, whereas in a non-polar environment, it is strongly fluorescent. Free NBD-cholesterol becomes inserted in cell membranes and is weakly fluorescent in this polar environment. When NBD-cholesterol is esterified with ACAT, the NBD-cholesterol ester enters non-polar lipid droplets and is then strongly fluorescent.
The method below is applied: HepG2 cells are incubated in the presence of NBD-cholesterol (1 μg/ml) and of the test compound of formula (I) in black 96-well transparent-bottomed plates, at a rate of 30 000 cells per well. After incubation for 6 hours at 37° C. under 5% CO2, the medium is removed by turning upside-down and the cells are washed with twice 100 μl of PBS. After addition of 50 μl of lysis buffer (10 mM NaPO4, 1% Igepal), the plates are shaken for 5 minutes and the fluorescence is read (excitation at 490 nm, emission at 540 nm) on a Fusion machine (Perkin-Elmer).

Row | IC50 | Structure (SMILES)
1 | 60 nM | CCC(NC(=O)CN1C(=O)N(c2ccc(C)cc2)C2(CCCCC2)C1=O)c1ccc(C)cc1 (stereo not shown) [Compound 13, 2-(2,4-dioxo-1-p-tolyl-1,3-diaza-spiro[4.5]dec-3-yl)-N-(1-p-tolyl-propyl)acetamide]
2 | 23 nM | Cc1ccc(N2C(=O)N(CC(=O)NC(c3ccccc3)C(C)C)C(=O)C23CCCCC3)cc1 (stereo not shown) [Compound 19, 2-(2,4-dioxo-1-p-tolyl-1,3-diaza-spiro[4.5]dec-3-yl)-N-(2-methyl-1-phenylpropyl)-acetamide]
3 | 31 nM | CCCC(NC(=O)CN1C(=O)N(c2ccc(C)cc2)C2(CCCCC2)C1=O)c1ccccc1C (stereo not shown) [Compound 8, 2-(2,4-dioxo-1-p-tolyl-1,3-diaza-spiro[4.5]dec-3-yl)-N-(1-o-tolyl-butyl)acetamide]
4 | 100 nM | Cc1ccc(N2C(=O)N(CC(=O)NC(c3ccccc3C)C(C)C)C(=O)C23CCCCC3)cc1 (stereo not shown) [Compound 9, 2-(2,4-dioxo-1-p-tolyl-1,3-diaza-spiro[4.5]dec-3-yl)-N-(2-methyl-1-o-tolylpropyl)-acetamide]
5 | 9 nM | CCC(NC(=O)CN1C(=O)N(c2ccc(C)cc2)C2(CCCCC2)C1=O)c1cccc(C(F)(F)F)c1 (stereo not shown) [Compound 17, 2-(2,4-dioxo-1-p-tolyl-1,3-diaza-spiro[4.5]dec-3-yl)-N-[1-(3-trifluoromethyl-phenyl)propyl]-acetamide]
6 | 50 nM | CCC(NC(=O)CN1C(=O)N(c2ccc(C)cc2)C2(CCCCC2)C1=O)c1ccccc1 (stereo not shown) [Compound 4, 2-(2,4-dioxo-1-p-tolyl-1,3-diaza-spiro[4.5]dec-3-yl)-N-(1-phenyl-propyl)acetamide]
7 | 36 nM | CC[C@H](NC(=O)CN1C(=O)N(c2ccc(C)cc2)C2(CCCCC2)C1=O)c1ccccc1 [Compound 6, 2-(2,4-dioxo-1-p-tolyl-1,3-diaza-spiro[4.5]dec-3-yl)-N-((S)-1-phenylpropyl)-acetamide]
